Measurements reported in patent US8178118B2, “Magnesium compositions and uses thereof for cognitive function” (Magceutics, Inc., priority 2007, dated 2012).

Key:
[1] = system: young, aging and aged rats
Procedure: Twenty 2-month old, male Sprague Dawley (SD) rats were housed in a temperature-controlled room (22° C. to 25° C.) with a dark period from 08:00 pm to 08:00 am daily. […] Over 7 days before the training and trial period began, each rat was handled and habituated to the maze and to Kellogg's Froot Loop cereal.
Each rat underwent a test of one trial, followed by an interval of 10-minutes, followed by another trial, and so on, for a total of 6 trials in one day. In each trial, each rat went through a sample run in the maze, followed by an interval of 15 seconds, followed by a choice run in the maze. In the sample run, the subject rat was forced to go to the left or to the right by the presence of a block, according to a pseudorandom sequence (with an equal number of left turns and right turns, and no more than two consecutive turns in the same direction). As a reward, Froot Loop cereal was available in the food well at the end of the run, regardless of the direction that was taken by virtue of the block. In the choice run, the block that had been present in the preceding sample run was removed, and the rat was allowed to choose to go to the left or to the right. As a reward, Froot Loop cereal was available in the food well at the end of the run, only when the rat had made a “correct choice” by choosing the direction opposite that taken in the preceding sample run. […]
On the first day (designated day 0) of the feeding of the two groups, as just described, each rat underwent a preliminary test of one trial, followed by an interval of 10 minutes, followed by another trial, and so on, for a total of 4 trials in one day. […] In this preliminary test, the choice accuracy level, or ratio of correct choices made, co, to the number of number of trials in the test, no, was determined for each rat. […]
Three groups of animals (young, aging, and magnesium-treated aging rats) were used. […] Spatial working memory was assessed using a T-maze non-matching-to-place task. […] Spatial working memory was first assessed on an elevated T-maze. […]

[2] = magnesium absorption rate in rats (intake versus fecal excretion, ICP-AES); conditions: FIG. 4, Example 5, Mg gluconate in skim milk or water with 5 weight percent lactose, MgCl2 in water
Procedure: Fifty 3-month old, male Sprague Dawley (SD) rats were divided into five groups of ten rats. Rats of this age and older are considered adult. Each of the rats was placed in a separate metabolic cage equipped with urine- and feces-collecting wells. All of the rats were maintained in a temperature-controlled room (22° C. to 25° C.) with a dark period from 08:00 pm to 08:00 am daily. From day 1 through day 3, each rat was fed daily 15 g of magnesium-free food and de-ionized water. […] The medium was skim milk for Composition 1 and Group 1, milk prepared from powdered milk, by diluting the powdered milk with water to obtain a composition like that of skim milk, for Composition 2 and Group 2, 1% milk cream in water for Composition 3 and Group 3, water comprising 5 weight percent lactose for Composition 4 and Group 4, and water for the Control Composition and Control Group. […]
From day 4 through day 10, urine from each rat was collected daily. The collected urine from each rat was then pooled together and the total volume of the pooled urine from each rat was recorded. The pooled urine from each rat, in an amount of […], was analyzed for magnesium content using an inductively coupled plasma-atomic emission spectrometer (ICP-AES). […] The pooled feces from each rat, in an amount of 0.5 g, were analyzed for magnesium content using an ICP-AES. […]

rats = assay: novel object recognition test in rats; assay type: in vivo, rat
Procedure: In this example, the effect of magnesium supplementation on recognition memory was tested. Three groups of rats were used in these experiments: 1) young rats (three months old); aging rats (12-14 months old), and; 3) magnesium-treated aging rats (12-14 months old, diet supplemented with 6 mg/kg MgCl2 from 8 months of age). We used experimentally naive, female, Sprague-Dawley young […], aging (12-14 month old) and […] rats (Charles River) at the beginning of the behavior experiments. They were housed two per cage with continuous access to food and water under a 12:12 light-dark cycle, with light onset at 8:00 a.m. […] All experiments involving animals were approved by the Massachusetts Institute of Technology's and Tsinghua University Committees on Animal Care.
The three groups of rats were tested for recognition memory using an object recognition test with a single exposure to the object during training. The task is based on the natural tendency of rodents to explore new objects and tests the animals' memory capacity for distinguishing novel versus familiar objects.
Briefly, the rats were first individually habituated to the personnel and then to open-field arena during 2 weeks. […] The retention intervals were 10 min and 24 hours. Objects were cleaned thoroughly between trials with 20% ethanol solution to ensure the absence of olfactory cues. The particular objects for a given trial were randomly determined, but each object was used for only one trial per rat. Memory of the familiar object is associated with increased exploration of the new object and an exploration index (% correct) is calculated as new object inspection time/30.
In this example, the effect of magnesium supplementation on memory consolidation was studied. […]
Briefly, the rats were first individually habituated to the personnel and then to open-field arena during 2 weeks. […] The particular objects for a given trial were randomly determined, but each object was used for only one trial per rat. […]

diabetic patients = conditions: nearly 1 g of magnesium daily for 1 month; cited from earlier work
[3] = system: mice genetically altered to present symptoms of Alzheimer's disease (AD); assay: modified Morris water maze test in AD mice; assay type: in vivo, mouse; conditions: AD mice aged 13 months, FIG. 16
Procedure: Another group, the control group, of 10 mice that were genetically altered to present symptoms of AD were fed a Control Diet, a diet of normal solid food and water, for 30 days.
The pool used was a pool of water in a circular metal tank (150 cm in diameter and 50 cm in depth) having a water height of 30 cm and a water temperature that was maintained at ˜22° C. The pool was placed in a moderately lit area and surrounded by a black curtain. An acrylic platform (15 cm in diameter) was placed 2 cm below the surface of the water in the middle of one quadrant of the pool, equidistant from the center and the edge of the pool. Outside the pool, a cue was placed so as to be visible to a mouse in the maze, allowing a mouse to use it as a landmark for spatial orientation. The cue remained unchanged throughout the test period.
On the first day of the training and testing period, the water in the pool was transparent, such that the platform was visible. Each mouse was trained to swim towards the platform and to stand on the platform so as not to be submerged in the pool. […] The amount of time the mouse took to find the platform, referred to as “escape latency,” was recorded for each trial.
On the second day of the training and testing period, a small quantity of milk was added to the water in the pool, such that the pool was opaque and the platform was no longer visible. […]

AD mice = assay: physical motility (swimming speed) during water maze test; assay type: in vivo, mouse; conditions: 7 months and 15 months of treatment, FIG. 21
Procedure: The swimming speed of each mice is calculated from off-analysis.

[4] = brain (brainstem) magnesium concentration in AD mice, ICP-OES; assay type: in vivo, mouse; conditions: AD mice on magnesium diet from 5 month to 21 month of age, FIG. 26A

## [Cl-].[Cl-].[Mg+2] [MgCl2, magnesium chloride]
[1]; all three groups (young, aging, magnesium-treated aging rats)
  asymptotic choice accuracy level after 8 days of training: ~94%
[1]; magnesium-treated aging rats versus aging rats, p<0.05
  learning in non-matching-to-place task, 15 sec delay: performed significantly better from their first trials
[1]; magnesium-treated aging rats, p<0.05
  spatial working memory with increased delay between sample and choice trials: significantly enhanced the performance of the aging rats at 2 and 5 min delays
[2]
  magnesium absorption rate of the higher dosage compositions (magnesium loading capacity): less desirable
rats; aging rats (12-14 months old), 6 mg/kg MgCl2 from 8 months of age, single exposure training, P<0.0001
  novel object exploration preference, 10 minute retention interval: preferentially explored the novel object to the same extent as young rats
rats; aging rats, single exposure training, all groups
  ability to distinguish novel versus familiar objects after 24 hours: lose there ability to distinguish novel versus familiar objects
rats; two training sessions separated by 10 minutes, magnesium-treated aging rats
  preference for the novel object, 24-hour retention interval after spaced training: retained a high level of preference

## [O]=[Mg] [magnesium oxide]
Diabetic patients
  increase of serum magnesium level: about 10%
  metabolic control: only minor improvement in metabolic control

## CC12CC3CC(C)(C1)CC(N)(C3)C2 [memantine]
[3]
  reduction of the effects of AD on learning capacity: better at reducing the effects of AD on learning capacity than aricept

## magnesium
AD mice
  mobility during the water maze test: greatly increased mobility
[4]
  relation of magnesium intake to brain magnesium: linearly correlated to the amount of brain magnesium

## magnesium gluconate
[2]
  magnesium absorption rate of the higher dosage compositions (magnesium loading capacity): suitably close to those associated with the lower dosage compositions
